Measured values as given in ChEMBL document CHEMBL1201862, “PubChem BioAssay data set” (2004).
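All cell lines were grown in 96-well plates and treated with compound for 48 hours. GI50 = concentration required for 50% inhibition of growth.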 Active and inactive are the calls of the source. No stated cut-off is given here; in the data, active = GI50 up to about 1.1 µM and inactive = higher.

Experiments:
Assay in all cases: growth of human tumour cells (NCI), 48 h
[1] = tested on: LOX IMVI
[2] = tested on: HT-29
[3] = tested on: HOP-92
[4] = tested on: HCC 2998
[5] = tested on: A549
[6] = tested on: MDA-N
[7] = tested on: T47D
[8] = tested on: PC-3
[9] = tested on: SW-620
[10] = tested on: OVCAR-8
[11] = tested on: SNB-19
[12] = tested on: UACC-257
[13] = tested on: SK-MEL-5
[14] = tested on: EKVX
[15] = tested on: NCI-H23
[16] = tested on: A498
[17] = tested on: DU-145
[18] = tested on: RXF 393
[19] = tested on: BT-549

Measured: GI50

Clc1ccc(NCNC2Nc3ccccc3N2)cc1Cl
inactive: [1] 4.63 µM | [2] 13.7 µM | [3] 48.4 µM | [4] 73.6 µM | [5] 56.9 µM | [6] 30.8 µM | [7] 12.6 µM | [8] 50.1 µM | [9] 27.6 µM | [10] 13.1 µM | [11] > 100 µM | [12] > 100 µM | [13] 17.1 µM | [14] 63.7 µM | [15] > 100 µM | [16] > 100 µM | [17] > 100 µM | [18] 30.8 µM

COCOCC1CCCN1CN1CCC[C@H]1COCOC (stereo partly drawn)
inactive: [2] 70.6 µM | [3] > 100 µM | [5] > 100 µM | [6] > 100 µM | [7] > 100 µM | [8] > 100 µM | [9] 33.2 µM | [10] > 100 µM | [11] > 100 µM | [12] > 100 µM | [13] > 100 µM | [14] > 100 µM | [15] > 100 µM | [16] > 100 µM | [17] 42.8 µM

CC1(C)C=[N+]([O-])C(C)(C)N1
inactive: [1] > 100 µM | [2] > 100 µM | [3] > 100 µM | [4] > 100 µM | [5] > 100 µM | [6] > 100 µM | [7] > 100 µM | [8] > 100 µM | [9] > 100 µM | [10] > 100 µM | [11] > 100 µM | [12] > 100 µM | [13] > 100 µM | [14] > 100 µM | [15] > 100 µM | [17] > 100 µM | [18] > 100 µM

COc1ccccc1-n1cnc2c1=NC(C)(C)NC=2C(N)=O
inactive: [1] > 100 µM | [2] > 100 µM | [4] > 100 µM | [5] > 100 µM | [6] > 100 µM | [7] > 100 µM | [8] > 100 µM | [9] > 100 µM | [10] > 100 µM | [11] > 100 µM | [12] > 100 µM | [13] > 100 µM | [14] > 100 µM | [15] > 100 µM | [16] > 100 µM | [17] > 100 µM | [18] > 100 µM

Fc1ccccc1/N=c1\oc2ccc(Br)cc2cc1-c1nc2ccccc2[nH]1
inactive: [1] 13.2 µM | [3] 18 µM | [4] 10.4 µM | [19] 7.93 µM | [5] 7.01 µM | [7] 38.3 µM | [8] 7.4 µM | [9] > 21.9 µM | [10] 9.23 µM | [11] 4.26 µM | [12] > 19.8 µM | [13] 8.49 µM | [14] 9.29 µM | [15] 7.33 µM | [16] 2.58 µM | [17] 17.1 µM | [18] 7.64 µM

C[n+]1c2ccc(Cl)cc2nc2cc(-c3ccccc3)ccc21
inactive: [1] 5.69 µM | [2] 2.9 µM | [4] 4.95 µM | [19] 11.1 µM | [5] 4.81 µM | [8] 10.5 µM | [9] 4.7 µM | [10] 3.67 µM | [11] 5.12 µM | [12] 15.6 µM | [13] 6.68 µM | [14] 10.8 µM | [15] 5.41 µM | [17] 22.5 µM | [18] 26.1 µM

CC(=O)NC1C(CO)O[C@@H]2OC(C)(C)O[C@H]12 (stereo partly drawn)
inactive: [1] > 100 µM | [2] > 100 µM | [3] > 100 µM | [4] > 100 µM | [19] > 100 µM | [5] > 100 µM | [6] > 100 µM | [8] > 100 µM | [9] > 100 µM | [10] > 100 µM | [11] > 100 µM | [12] > 100 µM | [14] > 100 µM | [15] > 100 µM | [16] > 100 µM

C=C1C(=O)O[C@H]2C1C[C@H](O)/C(C)=C/CC[C@@]1(C)O[C@H]21 (stereo partly drawn)
inactive: [1] 9.29 µM | [2] 23.3 µM | [3] 17.3 µM | [4] 14.4 µM | [5] > 100 µM | [6] 13.7 µM | [9] 2.09 µM | [10] 18 µM | [11] 60.1 µM | [12] 16.7 µM | [13] 10.7 µM | [14] 19 µM | [15] 19 µM | [17] 21.2 µM | [18] 15 µM

CN(C)CCCNC(=O)c1cc(NC(=O)c2cc(NC(=O)[C@@H]3C[C@H]3C(=O)Nc3cc(C(=O)Nc4cc(C(=O)NCCCN(C)C)n(C)c4)n(C)c3)cn2C)cn1C
inactive: [1] > 100 µM | [2] > 100 µM | [3] > 100 µM | [4] 20.9 µM | [19] > 100 µM | [5] > 100 µM | [8] > 100 µM | [9] > 100 µM | [10] > 100 µM | [11] > 100 µM | [12] > 100 µM | [13] > 100 µM | [14] > 100 µM | [15] > 100 µM | [17] > 100 µM

C=C(Cl)C(=C)CCC(Cl)C(C)(C)Cl (stereo not drawn)
inactive: [1] > 100 µM | [2] > 100 µM | [3] > 100 µM | [4] > 100 µM | [19] > 100 µM | [5] > 100 µM | [6] > 100 µM | [8] > 100 µM | [9] > 100 µM | [11] > 100 µM | [12] > 100 µM | [13] > 100 µM | [14] > 100 µM | [15] > 100 µM | [16] > 100 µM | [17] > 100 µM | [18] > 100 µM

NC(=O)N/N=C1/c2ccccc2-n2nccc21
inactive: [1] 51.3 µM | [2] 76.4 µM | [3] 64.7 µM | [4] 52.5 µM | [5] 78.3 µM | [6] 43.1 µM | [7] 27.4 µM | [8] > 100 µM | [9] > 100 µM | [10] > 100 µM | [11] > 100 µM | [12] > 100 µM | [13] 82.8 µM | [14] > 100 µM | [15] > 100 µM | [16] 38.7 µM | [17] > 100 µM | [18] 25.9 µM

OB1OCc2ccccc21 [BENZOXABOROLE]
inactive: [1] 39 µM | [2] 26.7 µM | [19] > 100 µM | [5] 33.8 µM | [7] > 100 µM | [8] 20 µM | [9] 30.7 µM | [10] 31.1 µM | [11] 60.8 µM | [12] 28.6 µM | [13] 46.9 µM | [15] 36.7 µM | [16] 34.5 µM | [17] > 100 µM
